Values joined by “and” are separate entries in the source; they are usually repeats but may differ in a detail not shown here. Equal entries are not always repeated.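 Exposure lasted 48 hours, with cells grown in 96-well plates and compounds tested at five concentrations. Abbreviation: GI50, concentration required for 50% inhibition of growth. TGI: concentration producing complete growth inhibition.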
Assays:
Experiment in all cases: NCI anticancer screen, dose series, 48 h
A498 renal = tested on: A498 renal
M14 melanoma = tested on: M14 melanoma
SK-MEL-2 melanoma = tested on: SK-MEL-2 melanoma
HOP-92 NSCLC = tested on: HOP-92 NSCLC
IGROV1 ovarian = tested on: IGROV1 ovarian
SF-295 CNS = tested on: SF-295 CNS
EKVX NSCLC = tested on: EKVX NSCLC
NCI-H226 lung = tested on: NCI-H226 lung
MDA-MB-435 = tested on: MDA-MB-435

Row | SMILES | TGI (A498 renal) [µM] | TGI (M14 melanoma) | TGI (SK-MEL-2 melanoma) | TGI (HOP-92 NSCLC) | TGI (IGROV1 ovarian) [µM] | TGI (SF-295 CNS) | TGI (EKVX NSCLC) | TGI (NCI-H226 lung) [µM] | GI50 (NCI-H226 lung) [µM] | GI50 (M14 melanoma) [µM] | GI50 (EKVX NSCLC) [µM] | GI50 (SK-MEL-2 melanoma) [µM] | GI50 (MDA-MB-435) [µM] | TGI (MDA-MB-435) [µM] | GI50 (HOP-92 NSCLC) [µM] | GI50 (IGROV1 ovarian) [µM] | GI50 (A498 renal) [µM] | GI50 (SF-295 CNS) [µM]
1 | CC(C)(C)OC(=O)NCC(=O)OCc1ccccc1 | > 100 | > 100 µM | > 100 µM | > 100 µM | > 100 | > 100 µM | – | – | – | – | – | – | – | – | – | – | – | –
2 | O=S(O)CCCCSSCC(O)C(O)CSSCCCCS(=O)O (stereo unspecified) | > 100 | 24.2 µM and 30.6 µM | 37.4 µM and 49.8 µM | 79.7 µM and 96.5 µM | > 100 | 33.1 µM and 37.5 µM | > 100 µM and 93.1 µM | – | – | – | – | – | – | – | – | – | – | –
3 | O=C1c2ccccc2C(=O)C1(Cl)C1(S(=O)(=O)O)c2ccccc2-c2ccccc21 | > 100 | > 100 µM | – | > 100 µM | > 100 | > 100 µM | – | > 100 | – | – | – | – | – | – | – | – | – | –
4 | CS(=O)(=O)N/N=C/CN1C(=O)c2ccccc2C1=O | > 100 | > 100 µM | > 100 µM | – | > 100 | > 100 µM | > 100 µM | > 100 | – | – | – | – | – | – | – | – | – | –
5 | C=CC1CC12C(=O)C1OC2(C)C2C(=O)c3cc4ccccc4cc3C(=O)C12 (stereo unspecified) | – | > 100 µM | > 100 µM | 95.3 µM | > 100 | – | > 100 µM | 79.8 | 21.5 | 37.8 | 16.8 | 45.8 | 26.3 | 77.8 | 20.9 | 39 | – | –
6 | CC(=O)O.CC(=O)O.CC(=O)O.CC(=O)O.CC(=O)O.CC(=O)O.O.[Ti].[Ti] | > 100 | > 100 µM | > 100 µM | > 100 µM | > 100 | > 100 µM | > 100 µM | > 100 | > 100 | > 100 | > 100 | > 100 | – | – | > 100 | > 100 | > 100 | > 100
7 | C=C(CCCCC)CN1CCCC1[C@@](C)(O)CC(=O)OCC (stereo partly specified) | > 100 | > 100 µM | > 100 µM | > 100 µM | > 100 | > 100 µM | > 100 µM | > 100 | – | – | – | – | – | – | – | – | – | –
8 | CNC(=S)NC1CCCCC1NC(=S)NC (stereo unspecified) | – | > 100 µM | > 100 µM | > 100 µM | > 100 | > 100 µM | > 100 µM | > 100 | – | – | – | – | – | – | – | – | – | –

Source: PubChem BioAssay (NCI)
